Test results from patent US20210024455A1 (priority 2018, published 2021).

Experiments:
HeLa1.2.11 cells = assay: cells; type: cell-based; conditions: read-out: IC50, suppressing proliferation of HeLa1.2.11 cells
TRF2 = target: T1, TRF2 (Homo sapiens, UniProt Q15554); assay: biochemical; type: binding; conditions: read-out: inhibition rate (%) in DSE FRET assay
T1 sequence (Q15554 1-542): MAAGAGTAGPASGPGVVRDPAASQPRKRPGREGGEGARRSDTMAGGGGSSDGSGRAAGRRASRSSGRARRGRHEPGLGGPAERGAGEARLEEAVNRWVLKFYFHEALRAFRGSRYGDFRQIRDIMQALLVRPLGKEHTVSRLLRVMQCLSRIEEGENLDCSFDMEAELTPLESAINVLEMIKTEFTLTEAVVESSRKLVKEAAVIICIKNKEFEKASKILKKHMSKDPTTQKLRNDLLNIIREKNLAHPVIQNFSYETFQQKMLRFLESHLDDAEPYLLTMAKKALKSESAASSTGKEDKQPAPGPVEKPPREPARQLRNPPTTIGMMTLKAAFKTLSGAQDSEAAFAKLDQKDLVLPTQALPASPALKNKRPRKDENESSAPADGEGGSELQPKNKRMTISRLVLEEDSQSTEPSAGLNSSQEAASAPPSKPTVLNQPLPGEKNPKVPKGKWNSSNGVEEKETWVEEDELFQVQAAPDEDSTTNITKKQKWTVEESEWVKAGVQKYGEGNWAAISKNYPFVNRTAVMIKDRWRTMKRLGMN

| SMILES | IC50 (HeLa1.2.11 cells) | inhibition at 50 µM (TRF2) |
| --- | --- | --- |
| O=[N+]([O-])c1cc([N+](=O)[O-])c(Oc2ccccc2N(c2ccccc2)c2ccccc2)c([N+](=O)[O-])c1 [compound 144] | 31 µM | 38.3% |
| Cc1ccc(N(c2ccccc2)c2ccccc2Oc2c([N+](=O)[O-])cc([N+](=O)[O-])cc2[N+](=O)[O-])cc1 [compound 145] | 26 µM | 38.7% |
| CC(=O)c1ccc(N(c2ccccc2)c2ccccc2Oc2c([N+](=O)[O-])cc([N+](=O)[O-])cc2[N+](=O)[O-])cc1 [compound 168] | 43 µM | 25.5% |
| CC(=O)c1ccc(N(c2ccc(C(C)=O)cc2)c2ccccc2Oc2c([N+](=O)[O-])cc([N+](=O)[O-])cc2[N+](=O)[O-])cc1 [compound 171] | 48 µM | 24.7% |
| CC(C)(C)c1ccc(Oc2c([N+](=O)[O-])cc([N+](=O)[O-])cc2[N+](=O)[O-])c(N(c2ccccc2)c2ccccc2)c1 [compound 192] | 24 µM | 33.6% |
| CC(=O)c1ccc(N(c2ccccc2)c2cc(C(C)(C)C)ccc2Oc2c([N+](=O)[O-])cc([N+](=O)[O-])cc2[N+](=O)[O-])cc1 [compound 201] | 15 µM | 23% |
| COc1ccc(N(c2ccccc2)c2ccccc2Oc2c([N+](=O)[O-])cc([N+](=O)[O-])cc2[N+](=O)[O-])cc1 [compound 204] | 20 µM | 20.4% |
| CC(=O)c1ccc(N(c2ccc(C)cc2)c2ccccc2Oc2c([N+](=O)[O-])cc([N+](=O)[O-])cc2[N+](=O)[O-])cc1 [compound 225] | 28 µM | 36.9% |
| CC(=O)c1ccc(N(c2ccc(C(C)(C)C)cc2)c2ccccc2Oc2c([N+](=O)[O-])cc([N+](=O)[O-])cc2[N+](=O)[O-])cc1 [compound 227] | 18 µM | 18.4% |
| Cc1cc([N+](=O)[O-])cc([N+](=O)[O-])c1Oc1ccccc1N(c1ccccc1)c1ccc(C(C)(C)C)cc1 [compound 228] | 20 µM | 11.8% |
| COc1ccc(N(c2ccccc2)c2cc(C(C)(C)C)ccc2Oc2c([N+](=O)[O-])cc([N+](=O)[O-])cc2[N+](=O)[O-])cc1 [compound #207] | 19 µM | 23.7% |
